Our source for the IC50 values is BindingDB's records for patent US20250171447 (Merck Sharp & Dohme, 2025).

Assay [1] deals with Adenosine receptor A2a (Homo sapiens, UniProt P29274). In words: A2A Binding Affinity Using SPA.
Assay [2] addresses T1, Adenosine receptor A2b (Homo sapiens, UniProt P29275).
T1 sequence (P29275 whole entry): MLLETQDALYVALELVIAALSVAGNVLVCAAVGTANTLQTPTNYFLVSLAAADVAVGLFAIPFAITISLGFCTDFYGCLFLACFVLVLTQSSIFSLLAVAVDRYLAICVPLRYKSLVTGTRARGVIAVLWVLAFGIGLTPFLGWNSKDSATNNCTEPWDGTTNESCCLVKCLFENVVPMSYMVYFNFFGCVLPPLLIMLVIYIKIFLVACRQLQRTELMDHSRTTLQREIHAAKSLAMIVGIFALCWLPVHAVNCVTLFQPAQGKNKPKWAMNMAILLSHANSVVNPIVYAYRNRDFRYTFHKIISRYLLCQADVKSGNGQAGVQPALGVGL
Description: A2B Binding Affinity Assay.

SMILES strings stand for the structures. pIC50: −log10 of the molar value.

Sequence of Adenosine receptor A2a (P29274 whole entry): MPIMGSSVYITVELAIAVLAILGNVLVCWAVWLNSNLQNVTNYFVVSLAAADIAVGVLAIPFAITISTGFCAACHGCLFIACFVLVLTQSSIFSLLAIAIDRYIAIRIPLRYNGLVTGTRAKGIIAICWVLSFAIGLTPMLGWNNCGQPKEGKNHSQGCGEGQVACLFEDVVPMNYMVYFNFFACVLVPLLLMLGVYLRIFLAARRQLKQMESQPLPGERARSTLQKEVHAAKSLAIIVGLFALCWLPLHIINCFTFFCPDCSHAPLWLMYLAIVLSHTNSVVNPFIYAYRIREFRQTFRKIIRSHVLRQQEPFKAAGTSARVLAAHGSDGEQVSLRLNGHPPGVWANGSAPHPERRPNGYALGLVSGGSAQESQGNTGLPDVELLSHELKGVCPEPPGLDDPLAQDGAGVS

Broadly, the pIC50 is −log10 of the IC50, conventionally taken in molar units. A high value points to a small IC50. Take `COc1cc2nc(N)n3nc([C@H]4C[C@H](c5ncc(C(C)(C)N)nc5C)C4)nc3c2cc1F` [US20250171447, Ex-131]: in assay [1], the pIC50 is 8.60.
For the molecule `COc1cc(F)cc2c1nc(N)n1nc(C3CC3(F)c3ccccc3)nc21` (centres undefined) [US20250171447, Ex-33], the pIC50 in assay [1] was 6.33; in assay [2] it was 7.20.
`COc1cc(F)cc2c1nc(N)n1nc(C3CC3(F)c3ccccc3)nc21` (centres undefined) [US20250171447, Ex-39]: the results for the pIC50 in assay [1] and in assay [2] were 9.22 and 7.14, respectively.
In turn, `Cc1nc(C(C)(C)N)cnc1[C@H]1C[C@@H](c2nc3c4cccc(Cl)c4nc(N)n3n2)C1` [US20250171447, Ex-128] showed a pIC50 in assay [1] of 7.28.
On the same count and under the same terms, the same measure for `COc1ccc2c(c1)nc(N)n1nc([C@H]3C[C@H](c4ccc(C(C)(C)O)cn4)C3)nc21` [US20250171447, Ex-60]: 8.10.
`COc1ccc2c(c1)nc(N)n1nc([C@H]3C[C@@H](c4ccc(C(C)(C)O)cn4)C3)nc21` [US20250171447, Ex-59] gave a negative logarithm of the IC50 (pIC50) in assay [1] of 8.24.
Still for that read-out and setting: the value for `COc1cccc2c1nc(N)n1nc(C3CC(c4ccc(C5(C#N)CNC5)nc4)C3)nc21` (centres undefined) [US20250171447, Ex-116] was 8.51.
On the same count and under the same terms, the same measure for `COc1cccc2c1nc(N)n1nc([C@H]3C[C@@H](c4ccc(CC(C)(C)O)cn4)C3)nc21` [US20250171447, Ex-65]: 8.68.
The same measure, in the same setting: the same measure for `COc1cc2nc(N)n3nc([C@H]4C[C@@H](c5ncc(C(C)(C)N)nc5C)C4)nc3c2cc1F` [US20250171447, Ex-132]: 7.43.
On to `COc1cccc2c1nc(N)n1nc(C3CC3CO)nc21` (centres undefined) [US20250171447, Ex-35], for which the pIC50 in assay [1] is 8.14; in assay [2], 6.98.
In turn, `COc1cccc2c1nc(N)n1nc([C@H]3C[C@H](c4ccc(C(C)(C)N)nc4)C3)nc21` [US20250171447, Ex-84] showed a pIC50 in assay [1] of 8.09.
For the molecule `COc1cccc2c1nc(N)n1nc([C@H]3C[C@@H](c4ccc(C(C)(C)O)nc4)C3)nc21` [US20250171447, Ex-54], the pIC50 was 8.96 in assay [1] and 8.16 in assay [2].
In the same order, the values of `COc1cccc2c1nc(N)n1nc(C3CC3CO)nc21` (centres undefined) [US20250171447, Ex-36] are 7.69 and 6.09.
In the same order, the values of `COc1cc(F)cc2c1nc(N)n1nc(C3CC3(F)c3ccccc3)nc21` (centres undefined) [US20250171447, Ex-29] are 8.46 and 7.35.
In the same order, the values of `COc1cc(F)cc2c1nc(N)n1nc([C@H]3C[C@@H](c4ccc(C(C)(C)O)cn4)C3)nc21` [US20250171447, Ex-45] are 8.80 and 8.21.
In assay [1], `COc1ccc2c(c1)nc(N)n1nc([C@H]3C[C@@H](c4ccc(CC(C)(C)O)cn4)C3)nc21` [US20250171447, Ex-55] gave a pIC50 of 7.81.
The same measure, in the same setting: the same measure for `COc1ccc2c(c1)nc(N)n1nc([C@H]3C[C@H](c4ccc(CC(C)(C)O)cn4)C3)nc21` [US20250171447, Ex-56]: 7.75.
On the same count and under the same terms, the value for `COc1ccc2c(c1)nc(N)n1nc([C@H]3C[C@H](c4ncc(C(C)(C)O)cn4)C3)nc21` [US20250171447, Ex-61] was 7.37; that for `COc1cccc2c1nc(N)n1nc([C@H]3C[C@H](c4ccc(C5(O)CC(F)(F)C5)cn4)C3)nc21` [US20250171447, Ex-103] was 8.96.
As to `CC(C)(O)c1ccc([C@H]2C[C@H](c3nc4c5cc(F)cc(F)c5nc(N)n4n3)C2)nc1` [US20250171447, Ex-64], the negative logarithm of the IC50 (pIC50) in assay [1] is 7.80; in assay [2] it was 8.77.
For `COc1cccc2c1nc(N)n1nc([C@H]3C[C@H](c4ccc(CC(C)(C)O)cn4)C3)nc21` [US20250171447, Ex-66], in assay [1], the negative-log IC50 (pIC50) was 8.70.
As to `COc1cccc2c1nc(N)n1nc(C3CC(c4ncc(C(C)(C)N)cc4Cl)C3)nc21` (centres undefined) [US20250171447, Ex-87], the negative logarithm of the IC50 (pIC50) is 9.10 in assay [1] and 8.57 in assay [2].
`Cc1nc(C(C)(C)N)cnc1[C@H]1C[C@@H](c2nc3c4cc(F)cc(F)c4nc(N)n3n2)C1` [US20250171447, Ex-130]: the pIC50 in assay [1] was 7.05.
In the case of `COc1cc(F)cc2c1nc(N)n1nc(C3CC3(F)c3ccccc3)nc21` (centres undefined) [US20250171447, Ex-32], the negative logarithm of the IC50 (pIC50) is 6.42 in assay [1] and 6.22 in assay [2].
The molecule `COc1cc(F)cc2c1nc(N)n1nc([C@H]3C[C@H](c4ccc(C(C)(C)O)cn4)C3)nc21` [US20250171447, Ex-44] had a negative logarithm of the IC50 (pIC50) in assay [1] of 8.62.
Same read-out and setting: the value for `COc1ccc2c(c1)nc(N)n1nc([C@H]3C[C@@H](c4cnc(C(C)(C)O)cn4)C3)nc21` [US20250171447, Ex-57] was 7.32; that for `Cc1nc(C(C)(C)N)cnc1[C@H]1C[C@H](c2nc3c4cc(F)cc(F)c4nc(N)n3n2)C1` [US20250171447, Ex-129] was 8.35.
For `CC(C)(O)c1ccc([C@H]2C[C@@H](c3nc4c5cc(F)cc(F)c5nc(N)n4n3)C2)nc1` [US20250171447, Ex-63], the negative logarithm of the IC50 (pIC50) in assay [1] is 8.15; in assay [2], 9.40.
For `COc1cccc2c1nc(N)n1nc([C@H]3C[C@H](c4ccc(C(C)(C)O)nc4)C3)nc21` [US20250171447, Ex-53], in assay [1], the pIC50 was 8.06.
Turning to `COc1ccc2c(c1)nc(N)n1nc([C@H]3C[C@H](c4cnc(C(C)(C)O)cn4)C3)nc21` [US20250171447, Ex-58], the pIC50 in assay [1] was 6.87.
Same read-out and setting: the same measure for `COc1ccc2c(c1)nc(N)n1nc([C@H]3C[C@@H](c4ncc(C(C)(C)O)cn4)C3)nc21` [US20250171447, Ex-62]: 6.97.
Consider `COc1cc(F)cc2c1nc(N)n1nc(C3CC3c3ccc(F)cc3)nc21` (centres undefined) [US20250171447, Ex-31], for which the negative logarithm of the IC50 (pIC50) is 7.35 in assay [1] and 7.56 in assay [2].
